Reference: patent publication US7524930B2, “Tumor antigen” (Green Peptide Co., Ltd, priority 2003, dated 2009)

How the values were obtained:
Format in all cases: cell-based, human
[1] = test system: peripheral blood mononuclear cells derived from a cancer patient; assay: CTL induction by peptide from autologous PBMC of cancer patient, IFN-γ production on recognition of target cells (Example 5); settings: for Recognition of tumor cells by PBMC stimulated in vitro with peptide (IFN-γ production): SW620, CA9-22 and Panc-1 HLA-A2+ tumor cells, result in words; for IFN-γ production from peripheral blood mononuclear cells in recognition of target cells: PBMC stimulated with 10 μM peptide
Text: Among the peptides that were able to enhance IFN-γ production from the OK-CTLp or OK-CTL clone in Example 4, those from P1 to P19 were examined for their ability to induce CTL from peripheral blood mononuclear cells derived from a cancer patient. The method for inducing CTL by a peptide was according to the well-known method (J. Exp. Med., 187:277-288, 1998; Cancer Res., 59:4056-4063, 1999.) Specifically, autologous peripheral blood mononuclear cells (PBMC) derived from a cancer patient, from whom OK-CTLp was obtained, were incubated together with the peptide (10 μM.) The cells were re-stimulated at day 10 and 14 after the start of culturing, using autologous PBMCs as an antigen presenting cell (APC) which were pulsed with 10 μM of the same peptide for 2 h and exposed to irradiation (30 gray.) At day 21 after the start of culturing, the cells were collected to test for surface phenotype. In addition, the cells were examined for the recognition of various target cells, using IFN-γ production measured by ELISA when they were cultured together with the target cells as an indicator. As a target cells, SW620 cell, CA9-22 cell, and Panc-1 cell, which are the HLA-A2^+ tumor cells, were used.

[2] = test system: peripheral blood mononuclear cells derived from a cancer patient; assay: as above; settings: PBMC stimulated with 10 μM peptide
OK-CTL clone = assay: IFN-γ production by OK-CTL clones cultured with COS-7 cells cotransfected with cDNA clone and HLA-A0207 cDNA; parameters: unit not given here
Description: Since CTL activated by recognizing the tumor antigen is a population of cells recognizing plural kinds of tumor antigens, the above-described OK-CTLp was subjected to cloning by limiting dilution culture (0.3, 0.5, 1, 2, and 4 cells/well) to obtain an OK-CTL clone (J. Immunol., 163:4994-5004, 1999. ) These clones are those having CTL activity selected by culturing them together with COS-7 cells into which 100 ng/well of any one of the above-described seven cDNA clones and 100 ng/well of HLA-A0207 cDNA were cotransfected, or with the tumor cells, in a cell ratio of 1:1, and measuring IFN-γ production. Specifically, three hundred CTL clones were obtained from the parent line OK-CTLp by a limiting dilution culture. Eighty CTL clones among them had HLA-A2-restricted tumor-specific CTL activity and expressed the phenotype of CD3^+ CD4^− CD8^+ and TCR αβ^+.

[3] = CTL clone 0.5-1-D6, cDNA with HLA-A0207 cDNA in COS-7
[4] = CTL clone 0.5-1-D7, cDNA with HLA-A0207 cDNA in COS-7
[5] = CTL clone 0.5-1-H2, cDNA with HLA-A0207 cDNA in COS-7
[6] = CTL clone 0.5-1-H12, cDNA with HLA-A0207 cDNA in COS-7
[7] = CTL clone 0.5-2-A4, cDNA with HLA-A0207 cDNA in COS-7
[8] = CTL clone 1-2-D1, cDNA with HLA-A0207 cDNA in COS-7
[9] = CTL clone 1-2-D7, cDNA with HLA-A0207 cDNA in COS-7
[10] = CTL clone 1-2-D12, cDNA with HLA-A0207 cDNA in COS-7
[11] = CTL clone 2-1-F4, cDNA with HLA-A0207 cDNA in COS-7
[12] = CTL clone 2-1-H12, cDNA with HLA-A0207 cDNA in COS-7
[13] = CTL clone 2-2-B4, cDNA with HLA-A0207 cDNA in COS-7
[14] = CTL clone 2-2-H3, cDNA 100 ng/well with HLA-A0207 cDNA in COS-7
[15] = CTL clone 4-1-H8, cDNA with HLA-A0207 cDNA in COS-7
[16] = CTL clone 4-2-A11, cDNA with HLA-A0207 cDNA in COS-7
[17] = CTL clone 4-2-B3, cDNA with HLA-A0207 cDNA in COS-7

Row | Molecule | IFN-γ production by CTL clone (OK-CTL clone; [3]) | IFN-γ production by CTL clone (OK-CTL clone; [4]) | IFN-γ production by CTL clone (OK-CTL clone; [5]) | IFN-γ production by CTL clone (OK-CTL clone; [6]) | IFN-γ production by CTL clone (OK-CTL clone; [7]) | IFN-γ production by CTL clone (OK-CTL clone; [8]) | IFN-γ production by CTL clone (OK-CTL clone; [9]) | IFN-γ production by CTL clone (OK-CTL clone; [10]) | IFN-γ production by CTL clone (OK-CTL clone; [11]) | IFN-γ production by CTL clone (OK-CTL clone; [12]) | IFN-γ production by CTL clone (OK-CTL clone; [13]) | IFN-γ production by CTL clone (OK-CTL clone; [14]) | IFN-γ production by CTL clone (OK-CTL clone; [15]) | IFN-γ production by CTL clone (OK-CTL clone; [16]) | IFN-γ production by CTL clone (OK-CTL clone; [17]) | further results
1 | ALVEFEDVL (Designed peptide having an ability to activate HLA-A2 restricted Cytotoxic T lymphocytes) [Peptide P6, Gene 2 (HNRPL) 140-148] | – | – | – | – | – | – | – | – | – | – | – | – | – | – | – | Recognition of tumor cells by PBMC stimulated in vitro with peptide (IFN-γ production) [1]: produced IFN-γ in a significant amount; IFN-γ production from peripheral blood mononuclear cells in recognition of target cells ([1]; target CA9-22 (HLA-A0207/24)): 863 pg/mL; IFN-γ production from peripheral blood mononuclear cells in recognition of target cells ([1]; target Panc-1 (HLA-A0201/11)): 527 pg/mL; IFN-γ production from peripheral blood mononuclear cells in recognition of target cells ([1]; target SW620 (HLA-A0201/24)): 344 pg/mL; IFN-γ production from peripheral blood mononuclear cells in recognition of target cells ([2]; target COLO320 (HLA-A24/24)): 40 pg/mL; IFN-γ production from peripheral blood mononuclear cells in recognition of target cells ([2]; target QG56 (HLA-A26/26)): 0 pg/mL; IFN-γ production from peripheral blood mononuclear cells in recognition of target cells ([2]; target RERF-LC-MS (HLA-A11/11)): 8 pg/mL
2 | ASLDSDPWV (Designed peptide having an ability to activate HLA-A2 restricted Cytotoxic T lymphocytes) [Peptide P10, Gene 3 (WHSC2) 103-111] | – | – | – | – | – | – | – | – | – | – | – | – | – | – | – | Recognition of tumor cells by PBMC stimulated in vitro with peptide (IFN-γ production) [1]: produced IFN-γ in a significant amount; IFN-γ production from peripheral blood mononuclear cells in recognition of target cells ([1]; target CA9-22 (HLA-A0207/24)): 130 pg/mL; IFN-γ production from peripheral blood mononuclear cells in recognition of target cells ([1]; target Panc-1 (HLA-A0201/11)): 163 pg/mL; IFN-γ production from peripheral blood mononuclear cells in recognition of target cells ([1]; target SW620 (HLA-A0201/24)): 108 pg/mL; IFN-γ production from peripheral blood mononuclear cells in recognition of target cells ([2]; target COLO320 (HLA-A24/24)): 0 pg/mL; IFN-γ production from peripheral blood mononuclear cells in recognition of target cells ([2]; target QG56 (HLA-A26/26)): 0 pg/mL; IFN-γ production from peripheral blood mononuclear cells in recognition of target cells ([2]; target RERF-LC-MS (HLA-A11/11)): 0 pg/mL
3 | Clone 5: cDNA clone from Panc-1, 2404 bp [AB044546], homology with ppMAPkkk | 0 | 0 | 81 | 0 | 0 | 0 | 0 | 0 | >1000 | 0 | 0 | 0 | 0 | 0 | 0 | –
4 | clone 1: cDNA clone from Panc-1, 1775 bp [AB044550], high homology with UBE2V | 19 | 27 | 0 | 0 | 0 | 21 | 0 | 0 | 0 | 134 | 0 | 110 | 0 | 0 | 0 | –
5 | clone 2: cDNA clone from Panc-1, 2097 bp [AB044547], high homology with HNRPL | 0 | 34 | 0 | 0 | 0 | 0 | 200 | >1000 | 0 | 0 | 0 | 0 | 133 | 0 | 0 | –
6 | clone 3: cDNA clone from Panc-1, 2243 bp [AB044549], high homology with WHSC2 | 0 | 0 | 0 | 0 | 0 | 22 | 0 | 0 | 0 | 0 | 0 | 0 | 0 | 100 | 0 | –
7 | clone 6: cDNA clone from Panc-1, 6707 bp [AB044545], homology with 2-5 OAS3 | 13 | 110 | 0 | 0 | 113 | 61 | 0 | 0 | 0 | 0 | >1000 | 0 | 0 | 0 | 0 | –
8 | clone 4: cDNA clone from Panc-1, 831 bp [AB044548], high homology with EIF4EBP1 (nucleic acid, listed as Homo sapiens, polyA_site (831)..(831)) DNA: GCGGGAGGGCAGCGAGAGGTTCGCGGGTGCAGCGCACAGGAGACCATGTCCGGGGGCAGCAGCTGCAGCCAGACCCCAAGCCGGGCCATCCCCGCCACTCGCCGGGTGGTGCTCGGCGACGGCGTGCAGCTCCCGCCCGGGGACTACAGCACGACCCCCGGCGGCACGCTCTTCAGCACCACCCCGGGAGGTACCAGGATCATCTATGACCGGAAATTCCTGATGGAGTGTCGGAACTCACCTGTGACCAAAACACCCCCAAGGGATCTGCCCACCATTCCGGGGGTCACCAGCCCTTCCAGTGATGAGCCCCCCATGGAAGCCAGCCAGAGCCACCTGCGCAATAGCCCAGAAGATAAGCGGGCGGGCGGTGAAGAGTCACAGTTTGAGATGGACATTTAAAGCACCAGCCATCGTGTGGAGCACTACCAAGGGGCCCCTCAGGGCCTTCCTGGGAGGAGTCCCACCAGCCAGGCCTTATGAAAGTGATCATACTGGGCAGGCGTTGGCGTGGGGTCGGACACCCCAGCCCTTTCTCCCTCACTCAGGGCACCTGCCCCCTCCTCTTCGTGAACACCAGCAGATACCTCCTTGTGCCTCCACTGATGCAGGAGCTGCCACCCCAAGGGGAGTGACCCCTGCCAGCACACCCTGCAGCCAAGGGCCAGGAAGTGGACAAGAACGAACCCTTCCTTCCGAATGATCAGCAGTTCCAGCCCCTCGCTGCTGGGGGCGCAACCACCCCTTCCTTAGGTTGATGTGCTTGGGAAAGCTCCCTCCCCCTCCTTCCCCAAGAGAGGAAATAAAAGCCACCTTCGCCCTAGGGCCAAG | 118 | 0 | 0 | >1000 | 0 | 44 | 0 | 0 | 0 | 0 | 0 | 0 | 0 | 0 | 95 | –
